In test [1] the target is DS (Escherichia coli, UniProt P0AB91). Briefly: DS activity with phenylalanine added to the reaction solution. It counts as biochemical. Particulars: 100 mM phenylalanine. Here is the method: (§1) DS, CM and PD activities of Corynebacterium glutamicum ATCC 39019 and transformants containing pEaroG-pheA3 were determined. Determination of DS activity was done according to the method of P.R. Sprinavasan, D.B. Sprinson, et al. [J. Biol. Chem., 234, 716 (1959)] and determination of CM and PD activities was done according to the method of R.G.H. Cotton and F. Gibson [Biochem. Biophys. Acta, 100, 76 (1965)].
DS, sequence (P0AB91 whole entry): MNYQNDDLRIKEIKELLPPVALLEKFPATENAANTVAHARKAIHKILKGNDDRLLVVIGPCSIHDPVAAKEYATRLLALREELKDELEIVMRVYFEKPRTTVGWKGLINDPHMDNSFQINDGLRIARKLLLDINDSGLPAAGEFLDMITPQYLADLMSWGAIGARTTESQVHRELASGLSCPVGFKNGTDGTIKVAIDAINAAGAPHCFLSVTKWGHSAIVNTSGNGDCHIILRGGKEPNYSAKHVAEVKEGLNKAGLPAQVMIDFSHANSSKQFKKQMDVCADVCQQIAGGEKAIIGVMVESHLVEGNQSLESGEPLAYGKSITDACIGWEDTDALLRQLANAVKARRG
(§2) Furthermore, DS, CM and PD activities of the transformants carrying pEaroG-pheA1, pEaroG-pheA2 or pEaroG-pheA3, were determined when 100 mM phenylalanine was added to the reaction solutions. Their activities shown in Table 2 are expressed as percentages of those without addition of phenylalanine.

For test [2], the target named is CM (Escherichia coli, UniProt P0A9J8). Briefly: CM activity with phenylalanine added to the reaction solution. It counts as biochemical. As to conditions: 100 mM phenylalanine; for activity at 100000 µM: read-out: CM activity, expressed as percentage of that without addition of phenylalanine. Here is the method: as §1, §2
CM, sequence (P0A9J8 whole entry): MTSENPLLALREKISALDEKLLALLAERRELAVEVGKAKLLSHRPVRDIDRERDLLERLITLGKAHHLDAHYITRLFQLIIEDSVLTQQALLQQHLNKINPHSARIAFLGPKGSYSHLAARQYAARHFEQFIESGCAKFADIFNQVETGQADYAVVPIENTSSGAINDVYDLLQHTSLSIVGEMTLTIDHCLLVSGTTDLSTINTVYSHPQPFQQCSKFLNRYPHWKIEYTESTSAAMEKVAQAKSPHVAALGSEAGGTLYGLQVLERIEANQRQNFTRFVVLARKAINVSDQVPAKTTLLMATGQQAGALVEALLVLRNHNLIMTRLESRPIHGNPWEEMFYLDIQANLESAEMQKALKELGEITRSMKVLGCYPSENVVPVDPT
Test [3] has as its target PD (Escherichia coli, UniProt P0A9J8). The test is described as follows: PD activity with phenylalanine added to the reaction solution. It counts as biochemical. As to conditions: 100 mM phenylalanine; for activity at 100000 µM: read-out: PD activity, expressed as percentage of that without addition of phenylalanine. Here is the method: as §1, §2
Test [4] concerns Escherichia coli AB3248 strain carrying pAROG1. The test is described as follows: Growth on M9 plate medium containing phenylalanine. It counts as cell-based. As to conditions: M9 plate medium containing 500 µg/mℓ phenylalanine. Here is the method:
Then, 50 µℓ of the ligase reaction mixture was added to 0.2 mℓ of a suspension containing competent cells at a concentration of about 10⁹ cells/mℓ and the mixture was left standing on ice for 10 minutes. Then, the mixture was heated at 37°C for 5 minutes and admixed with 2 mℓ of LB medium. Then, the mixture was left standing at 37°C for 90-120 minutes. Then, the cells were centrifugally washed twice with physiological saline solution and spread onto M9 plate medium (medium comprising 2 g of glucose, 1 g of NH₄Cl, 6 g of Na₂HPO₄, 3 g of KH₂PO₄, 0.1 g of MgSO₄·7H₂O, 15 mg of CaCl₂·2H₂O, 4 mg of thiamine hydrochloride and 15 g of agar in 1 ℓ of water, adjusted to pH 7.2), containing […] each of histidine, proline, arginine, isoleucine and valine. Colonies grown on M9 plate medium were spread onto LB plate medium (LB medium containing 1.6% agar, pH 7.0) containing 100 µg/mℓ ampicillin and LB plate medium containing 20 µg/mℓ tetracycline, and transformants grown on the ampicillin-containing medium and failing to grow on the tetracycline-containing medium were selected.
Furthermore, the HindIII-SalI-cleaved DNA fragment had the same restriction enzyme cleavage sites as those of aroG gene, as reported by W.D. Davies, et al. [Nucl. Acids Res., 10, 4045 (1982)] […]

Where [5] appears, read: Corynebacterium glutamicum ATCC 39019/pEaroG-pheA2.
Where [6] appears, read: Corynebacterium glutamicum ATCC 39019/pEaroG-pheA3.
Setting [7] is: Corynebacterium glutamicum ATCC 39019/pEaroG-pheA1.

We go through one compound from patent EP0264914A2, “Process for producing L-phenylalanine” (KYOWA HAKKO KOGYO CO., LTD., priority 1986, dated 1988).

Like-named read-outs stand apart in the source and are kept apart here.

PD, sequence (P0A9J8 whole entry): as above

`N[C@@H](Cc1ccccc1)C(=O)O` [phenylalanine]: the activity at 100000 µM in test [1] (Corynebacterium glutamicum ATCC 39019/pEaroG-pheA1, read-out: DS activity, expressed as percentage of that without addition of phenylalanine) came to 12%; in test [2] (setting [7]), 61%; in test [2] (setting [5]), 66%; in test [3] (setting [7]), 5%; in test [3] (setting [5]), 7%. The “DS activity, expressed as percentage of that without addition of phenylalanine” value in test [1] (setting [5]) and in test [1] (setting [6]) was 74 percentages each time. In addition, the “CM activity, expressed as percentage of that without addition of phenylalanine” value in test [2] (setting [6]) is reported as 89 percentages. Further, in test [3] (setting [6]), the “PD activity, expressed as percentage of that without addition of phenylalanine” value amounted to 81 percentages. Further, the “growth of Escherichia coli AB3248 strain carrying pAROG1” value in test [4] is recorded as “completely inhibited”.
